Experimental data taken from patent US9132084B2, “Methods for administration and formulations for the treatment of regional adipose tissue” (NEOTHETICS, INC., priority 2009, dated 2015).

Assays:
[1] = versus albuterol, a short-acting hydrophilic beta-adrenergic agonist; cited from earlier work
[2] = Plasma pharmacokinetics following single intravenous and subcutaneous injections of salmeterol xinafoate; details: for AUC(0-inf): AUCinf; for half-life: t1/2
Method: Salmeterol xinafoate was formulated in 5% PEG-400 in 0.9% saline, USP, at concentrations of 0.1, 1, 10, and 100 μg/mL. 1 male and 1 female non-naive Gottingen minipigs (18.4 to 19.5 kg at the time of the IV dose) were utilized. The animals were housed individually.
Each minipig received a single IV injection followed by SC doses of the salmeterol formulation. The IV dose was administered by slow bolus (1 minute; 0.0167 hr) into the marginal ear vein, whereas the first SC dose was administered as a bolus injection along the back (neck-region) where there was a longitudinal fat depot. The second SC dose was distributed in 5 separate SC injection sites. The fourth, fifth, and sixth administrations were SC administrations divided over 5 injection sits of different graded concentrations (0.1, 1, and 10 μg/mL of salmeterol in 5% PEG). Each dose was separated by at least a 3-day washout period. Blood samples (approximately 4 mL) were collected via the branchiocephalic plexus at pre-dose and at 2.00, 5.00, 10.0, 20.0, 30.0 and 45.0 minutes, and at 1.00, 2.00, 4.00, 8.00 and 24.0 hr post-dose. Blood samples were placed in tubes containing K2-EDTA as the anticoagulant. Samples were processed to plasma by centrifugation and stored frozen at approximately −70° C. (+/−15° C.) until shipment for analysis.
Plasma samples were analyzed for salmeterol using a qualified liquid chromatography/mass spectrometry/mass mass spectrometry (LC/MS/MS) method. The lower limit of quantitation (LLOQ) was 2.50 pg/mL. Samples were analyzed within a maximum of 14.0 days of collection.
Non-compartmental pharmacokinetic parameters were calculated using WinNonlin 5.2 software, NCA model 202, IV infusion input for the IV data and NCA model 200, extravascular input for the SC data. Individual plasma concentrations for each animal were used in the calculation of pharmacokinetic parameters. Nominal collection times and doses were used in the calculations. The area under the plasma concentration-time curve (AUC) was calculated using linear trapezoidal approximation (linear/log interpolation). Concentration values below the assay limit of quantitation were set to zero for calculations. The maximum plasma concentration (Cmax) and the time of its occurrence (Tmax) were verified by inspection. The half-life (t1/2) values were calculated using the last 3 plasma concentrations with nonzero values, if data permitted.

[3] = system: abdominal subcutaneous adipose tissue
Text: To evaluate in a single masked, placebo-controlled design, the safety and exploratory efficacy measures of subcutaneous injections of three different doses of the combination of salmeterol xinafoate (SX) and fluticasone propionate (FP) administered by subcutaneous injection 1 or 2 times per week for 4 weeks to subjects with measurable abdominal subcutaneous adipose tissue.
A single-masked, placebo-controlled multiple-dose study of the safety and efficacy of three different doses of the combination of salmeterol xinafoate (SX) and fluticasone propionate (FP) administered by subcutaneous injection 1 or 2 times per week for 4 weeks in 60 subjects with measurable abdominal subcutaneous adipose tissue.
A 400 μg/mL sterile, preservative-free, clear, aqueous solution for injection of SX is contained in a 5 mL single-use glass vial. Each 5 mL single-use glass vial contains 2.6 mL of SX solution (400 μg/mL) which is stored frozen (−15° C. or below) and protected from light until dose preparation. A 25 mg/mL sterile, preservative free, clear, aqueous solution for injection of FP is contained in a 2 mL single-use glass vial. […]
Measurements of waist were taken at specified time points. […] The full waist circumference, and the right and the left hemi-circumferences were recorded.

[4] = system: abdominal subcutaneous adipose tissue; assay: Phase 2 double-masked evaluation of safety and efficacy of SX and FP subcutaneous injection; details: total weekly SX/FP dose of 11 μg/22 μg
Text: A Phase 2 study to examine the potential of selected doses of salmeterol xinafoate (SX) and fluticasone propionate (FP) co-administered to reduce abdominal subcutaneous adipose tissue, which is an interim surrogate to guide studies in subjects with symptomatic exophthalmos associated with thyroid-related eye disease (TED). The study also evaluated the safety and efficacy of subcutaneous injections of salmeterol xinafoate (SX) and fluticasone propionate (FP) for the reduction of abdominal (peri- and infra-umbilical) adiposity. The study compared the efficacy and safety of salmeterol xinafoate (SX) and fluticasone propionate (FP) at 1.0 μg FP and 0.05 μg SX once weekly to 1 mL placebo once weekly for 8 weeks for the reduction of measurable, abdominal subcutaneous adipose tissue. Additionally, the study evaluated in a double-masked, placebo-controlled design, the pharmacokinetics following multiple injected doses of salmeterol xinafoate (SX) and fluticasone propionate (FP) once weekly for 8 weeks. […]
All injections were performed in an outpatient setting. […] Once the study was completed and unmasked, only the serum samples collected from subjects receiving the higher combination dose were analyzed.

[5] = Phase 1 open-label pharmacokinetics and safety of SX and FP co-administered subcutaneously in healthy volunteers; details: 52 μg salmeterol xinafoate with 22 μg fluticasone propionate SC once per week for 4 weeks
Method: Part III: An open-label, multiple-dose pharmacokinetic study of the selected SX+FP combined dose administered subcutaneously either 1 time per week for 4 weeks or 3 times per week for 4 weeks in twelve (12) healthy volunteers.
A 400 μg/mL sterile, preservative-free, clear, aqueous solution for injection of SX is contained in a 5 mL single-use glass vial. Each 5 mL single-use glass vial contains 2.6 mL of SX solution (400 μg/mL) which is stored frozen (−15° C. to −25° C.) and protected from light until dose preparation. A 25 mg/mL sterile, preservative free, clear, aqueous solution for injection of FP is contained in a 2 mL single-use glass vial. Each 2 mL single-use glass vial contains 1.0 mL of FP solution (25 μg/mL) which is stored frozen (−15° C. to −25° C.) and protected from light until dose preparation. Diluent: A sterile, preservative free, clear, aqueous solution of 20% PEG 400, 1% polysorbate 80, and sterile water for injection contained in a 10 mL single-use glass vial. Each 10 mL single-use glass vial contains 5.0 mL of diluent solution which should be stored at room temperature (15° C. to 25° C.). Prior to administration, the drug products are thawed, mixed, and if necessary diluted with sterile diluent to provide the target concentrations for dose administration. […]

[6] = female, Gottingen, minipig, in vivo, iv, 4 ug/kg
[7] = female, Gottingen, minipig, in vivo, sc, 0.4 ug/kg
[8] = female, Gottingen, minipig, in vivo, sc, 4 ug/kg
[9] = male, Gottingen, minipig, in vivo, iv, 4 ug/kg
[10] = male, Gottingen, minipig, in vivo, sc, 0.4 ug/kg
[11] = male, Gottingen, minipig, in vivo, sc, 4 ug/kg

For OCc1cc(C(O)CNCCCCCCOCCCCc2ccccc2)ccc1O (racemic) [Salmeterol, ±2-(hydroxymethyl)-4-[1-hydroxy-2-[6-(4-phenylbutoxy)hexylamino]ethyl]-phenol], the “lipophilicity relative to albuterol” value [1] is given as “at least 10,000 times”, the Tmax ([2]; SC5 (5 sites) 4 μg/kg, male 1-0771) is given as 0.0833 h and the “salmeterol partition ratio (plasma Cmax ratio of subcutaneous to intravenous administration)” value ([2]; both, Gottingen, minipig, in vivo) is given as 0.1. The concentration at 0.0833 hr ([2]; female, Gottingen, minipig, in vivo) was 0.485 ng/mL, the bioavailability ([2]; female, Gottingen, minipig, in vivo, 0.4 ug/kg, F (bioavailability)) was 112% and the concentration at 0.0833 hr ([2]; female, Gottingen, minipig, in vivo, 0.04 mg/kg) was 0.00317 ng/mL. It also gave a concentration at 0.0833 hr ([2]; female, Gottingen, minipig, in vivo, iv) of 1.3 ng/mL, a Vd [2, 6] of 22.1 L/kg and a clearance [2, 6] of 45.5 mL/min/kg. For the same compound, the AUC(0-inf) [2, 6] was 1.47 ng·h/mL, the Cmax ([2]; female, Gottingen, minipig, in vivo, iv, 4 ug/kg, Cmax) was 4.95 ng/mL and the Tmax ([2]; female, Gottingen, minipig, in vivo, iv, 4 ug/kg, Tmax) was 0.0333 h. The half-life [2, 6] was 9.52 h, the concentration at 0.0833 hr ([2]; female, Gottingen, minipig, in vivo, sc) was 0.227 ng/mL and the Cmax ([2]; female, Gottingen, minipig, in vivo, sc, 0.004 ug/kg, Cmax) was 0.00308 ng/mL. For the same compound, the Tmax ([2]; female, Gottingen, minipig, in vivo, sc, 0.004 ug/kg, Tmax) was 1 h, the Cmax ([2]; female, Gottingen, minipig, in vivo, sc, 0.04 ug/kg, Cmax) was 0.00831 ng/mL and the Tmax ([2]; female, Gottingen, minipig, in vivo, sc, 0.04 ug/kg, Tmax) was 0.0333 h. For the same compound, the “F (bioavailability)” value [2, 7] was 1.12, the AUC(0-inf) [2, 7] was 0.164 ng·h/mL and the Cmax ([2]; female, Gottingen, minipig, in vivo, sc, 0.4 ug/kg, Cmax) was 0.113 ng/mL. The Tmax ([2]; female, Gottingen, minipig, in vivo, sc, 0.4 ug/kg, Tmax) was 0.0333 h, the half-life [2, 7] was 2.88 h and the AUCinf [2, 8] was 2.01 ng·h/mL. The Cmax [2, 8] was 0.626 ng/mL, the “F (bioavailability)” value [2, 8] was 1.37 and the t1/2 [2, 8] was 8.58 h. The AUC(0-inf) [2, 8] was 1.85 ng·h/mL, the Cmax ([2]; female, Gottingen, minipig, in vivo, sc, 4 ug/kg, Cmax) was 0.403 ng/mL and the bioavailability ([2]; female, Gottingen, minipig, in vivo, sc, 4 ug/kg, F (bioavailability)) was 126%. It also gave a bioavailability ([2]; female, Gottingen, minipig, in vivo, sc, 4 ug/kg, bioavailability) of 126 to 137%, a half-life [2, 8] of 6.02 h and a concentration at 0.0833 hr ([2]; male, Gottingen, minipig, in vivo) of 0.681 ng/mL. The bioavailability ([2]; male, Gottingen, minipig, in vivo, 0.4 ug/kg, F (bioavailability)) was 78.9%, the concentration at 0.0833 hr ([2]; male, Gottingen, minipig, in vivo, 0.04 mg/kg) was 0.00277 ng/mL and the concentration at 0.0833 hr ([2]; male, Gottingen, minipig, in vivo, iv) was 1.38 ng/mL. It also gave a Vd [2, 9] of 17.1 L/kg, a clearance [2, 9] of 38 mL/min/kg and an AUC(0-inf) [2, 9] of 1.75 ng·h/mL. The Cmax ([2]; male, Gottingen, minipig, in vivo, iv, 4 ug/kg, Cmax) was 4.29 ng/mL, the Tmax ([2]; male, Gottingen, minipig, in vivo, iv, 4 ug/kg, Tmax) was 0.0333 h and the half-life [2, 9] was 7.89 h. The concentration at 0.0833 hr ([2]; male, Gottingen, minipig, in vivo, sc) was 0.575 ng/mL, the Tmax ([2]; male, Gottingen, minipig, in vivo, sc, 0.04 ug/kg) was 0.0833 h and the Cmax ([2]; male, Gottingen, minipig, in vivo, sc, 0.04 ug/kg, Cmax) was 0.00277 ng/mL. For the same compound, the “F (bioavailability)” value [2, 10] was 0.789, the Tmax [2, 10] was 0.0833 h and the AUC(0-inf) [2, 10] was 0.138 ng·h/mL. It also gave a Cmax ([2]; male, Gottingen, minipig, in vivo, sc, 0.4 ug/kg, Cmax) of 0.0645 ng/mL, a half-life [2, 10] of 2.94 h and an AUCinf [2, 11] of 1.51 ng·h/mL. The Cmax [2, 11] was 0.681 ng/mL, the “F (bioavailability)” value [2, 11] was 0.863 and the Tmax [2, 11] was 0.0833 h. It also gave a t1/2 [2, 11] of 6.84 h, an AUC(0-inf) [2, 11] of 1.29 ng·h/mL and a Cmax ([2]; male, Gottingen, minipig, in vivo, sc, 4 ug/kg, Cmax) of 0.575 ng/mL. It also gave a bioavailability ([2]; male, Gottingen, minipig, in vivo, sc, 4 ug/kg, F (bioavailability)) of 73.7%, a bioavailability ([2]; male, Gottingen, minipig, in vivo, sc, 4 ug/kg, bioavailability) of 73.7 to 86.3% and a half-life [2, 11] of 5.92 h. For the same compound, the “partition ratio relative to the partition ratio of formoterol” value ([2]; minipig, in vivo) was “about five times lower” and the Cmax ([2]; minipig, in vivo, 0.004 ug/kg) was 0 ng/mL.

For OCc1cc(C(O)CNCCCCCCOCCCCc2ccccc2)ccc1O (stereo not drawn) [salmeterol xinafoate], the “efficacy of once per week versus twice per week dosing” value ([3]; human clinical trial, FIGS. 3B and 7B) was “more efficacious than twice per week dosing” and the “dose-therapeutic efficacy response (change in waist circumference)” value ([3]; lowest dose 0.5 μg salmeterol xinafoate once per week for 4 weeks, with fluticasone, versus higher weekly doses) was “greatest therapeutic efficacy”.

With fluticasone propionate the “plasma levels relative to 505(b)(2) reference levels produced by an FDA-approved drug” value [4] was “⅓-⅕” and the “Cmax and AUC at day 22 compared to day 1” value [5] was “increase”.
